Data on 4 substances can be found in patent US9295629B2, “WNT family-derived peptides and use thereof” (CAREGEN CO., LTD., priority 2011, dated 2016).

One assay has as its system NIH3T3 fibroblasts. Put plainly: SRB colorimetric cell growth assay, fibroblasts. The format is cell-based. The settings on record: for growth of fibroblasts, microscope image: NIH3T3, 72 hr, observed under a microscope (FIG. 3b); for effect on the growth of fibroblasts: NIH3T3, peptide 1 ng/ml-10 μg/ml, 72 hr, SRB absorbance at 590 nm (FIG. 2b). The method, then: (§1) In order to evaluate three peptides prepared in Preparation Examples 1-2 whether they have similar activities of growth factor, SRB (Sulforhodamine B; Sigma-Aldrich) colorimetric assay was carried out using HaCaT kerationcytes (Korean Cell Line Bank) and NIH3T3 fibroblasts (Korean Cell Line Bank) according to Rizzino et al. method (Rizzino, et al. Cancer Res., 48: 4266 (1988)).
(§2) HaCaT ketatinocytes, NIH3T3 fibroblasts, and HHFDPC hair follicle cells (cell science) were cultured in 250 ml-flasks containing DMEM (Dulbecco's Modified Eagle's minimal essential media; Gibco, USA) supplemented with 10% FBS (fetal bovine serum; Sigma). Cells cultured were treated with 1% trypsin solution to detach cells from the bottom of culture flasks and centrifuged to collect cell pellets. After cells were resuspended in DMEM not containing FBS, its aliquot (3×10^3 cells) was added to each well of 96-well plates and cultured under 5% CO2 for 24 hr at 37° C. After 24-hr culture, the medium was changed with a fresh medium without serum and cells were incubated with empty sample (for normalization) and peptides synthesized (1 ng/ml, 10 ng/ml, 100 ng/ml, 1 μg/ml and 10 μg/ml) aseptically dissolved in 10% DMSO for 72 hr under the same conditions as described above. After removing supernatants, cells were fixed with ethanol and then washed three times using PBS (phosphate buffered saline), followed by incubation with SRB solution. Cells were sufficiently washed with 1% acetic acid and observed under a microscope to find living cell condition. In addition, absorbance at 590 nm was measured to analyze cell viability. Meanwhile, after culturing under the same conditions, the tissue was immunostained by an immunohistochemical assay with ki-67 antibody (SantaCruz, USA) and the amount of ki-67 protein as a cell proliferation marker was observed.

The next assay concerns LRP5. Put plainly: Western blot of Phospho-LRP5 in HaCaT keratinocytes. To be noted: peptide 5 hr, Western blot (FIG. 4). The format is cell-based. As to the method:
(§3) HaCaT kerationcytes cultured for 48 hr were incubated with the peptides synthesized in preparation Example 1 for 5 hr. The phosphorylation level of LRP5, which is the receptor of WNT protein and expression level of β-catenin, which is the signal molecule of WNT protein were examined respectively. The amount of Phopho-LRP5 and β-catenin were measured by Western blot analysis using an antibody against Phopho-LRP5 (Cell signaling) and β-catenin (SantaCruz, USA). In addition, the expression level of LEF-1 transcription factor was also observed, which is enhanced by β-catenin. […] First of all, it was shown that β-catenin activity is observed by treatment with the peptide of the present invention in spite of the presence of DKK-1 as a WNT inhibitor and a β-catenin signaling inhibitor (FIG. 5b). It was also observed that the expression level of LEF-1 transcription factor was increased by the treatment of the present peptides (FIG. 6).
(In general: A western blot detects proteins with antibodies after separation by electrophoresis.)

A further assay relates to C57BL/6 mouse back skin. Description: Mouse hair growth, topical peptide nanosome. The format is in vivo. The settings on record: nanosome topically twice every day for 15 days (FIG. 8). The method, then: The peptide synthesized in Preparation Example 1 was formulated into nanosome. Afterwards, the back of C57BL/6 mouse was partially removed and then the skin was topically administered with the nanosome twice every day for 15 days.
50 mg of each peptide synthesized in preparation Examples was dissolved in 500 ml of distilled water by sufficient agitation. The peptide solution was mixed with 5 g lecithin, 0.3 ml sodium oleate, 50 ml ethanol and a small amount of oils, and its volume was adjusted with distilled water to 1 L. The resulting solution was subjected to a microfluidizer under high pressure for emulsification, thereby providing nanosomes having about 100-nm size. The nanosomes were prepared to have a final concentration of about 50 ppm and used as ingredients for cosmetics.

The next assay has as its system fibronectin. Description: Fibronectin ELISA in NIH3T3 fibroblasts. The format is cell-based. To be noted: for fibronectin expression with the lapse of time: NIH3T3, peptide 1 μg/ml, 3, 10, 24 or 48 hr, ELISA (FIG. 7a); for fibronectin expression in the presence of DKK-1: NIH3T3, treated with both DKK-1 protein and peptide, ELISA (FIG. 7b). The method, then:
To verify whether the peptides synthesized in preparation Example 1 enhances the expression of fibronectin as a WNT target protein, NIH3T3 fibroblasts (4×10^3 cells) was added to each well of 96-well plates and cultured under 5% CO2 for 24 hr at 37° C. After 24-hr culture, the medium was changed with a fresh medium without serum and cells were treated with empty sample (for normalization), three peptides synthesized (1 μg/ml) and peptide complex (1 μg/ml) aseptically dissolved in 10% DMSO for 3 hr, 10 hr, 24 hr or 48 hr under the same conditions as described above. After 72 hr incubation, the cell culture was collected and the expression level of fibronectin was measured using Fibronectin ELISA kit (R&D systems, USA).
In addition, after DKK-1 protein was treated and cultured under the same conditions, the expression level of fibronectin was examined.
(In general: ELISA stands for enzyme-linked immunosorbent assay.)

Another assay deals with HaCaT keratinocytes. Description: SRB colorimetric cell growth assay, keratinocytes. The format is cell-based. The settings on record: 72 hr; for growth of keratinocytes, microscope image: observed under a microscope (FIG. 3a); for effect on the growth of keratinocytes: peptide 1 ng/ml-10 μg/ml, SRB absorbance at 590 nm (FIG. 2a). The method, then:
as §1, §2

The subject of another assay is β-catenin. Description: Western blot of β-catenin in HaCaT keratinocytes. The settings on record: for expression level / activity of β-catenin: peptide 5 hr, Western blot (FIG. 5a); for β-catenin expression / activity in the presence of DKK-1: with DKK-1 (WNT inhibitor), Western blot (FIG. 5b). The format is cell-based. As to the method: as §3
The test system of assay [1] is HHFDPC hair follicle cells. Description: SRB colorimetric cell growth assay, hair follicle cells. The format is cell-based. To be noted: 72 hr; for growth of cells in hair follicles, microscope image: observed under a microscope (FIG. 3c); for effect on the growth of cells in hair follicles: peptide 1 ng/ml-10 μg/ml, SRB absorbance at 590 nm (FIG. 2c). As to the method: as §2

Where no end group is shown, it is not given here.

In the case of “LCCGRGHRTRTQR (cysteine pairing not given here) [peptide-1]”, in the assay on NIH3T3 fibroblasts, the “growth of fibroblasts, microscope image” value is listed as “promote the growth” and the “effect on the growth of fibroblasts” value is recorded as “stimulatory effect”. Besides, the “phosphorylation level of LRP5” value with LRP5 was “enhancement”. For the same substance, the “hair growth on mouse back skin” value with C57BL/6 mouse back skin is “activity for promoting hair growth”. Further, in the assay with fibronectin, the “fibronectin expression with the lapse of time” value is reported as “gradually elevated”; the “fibronectin expression in the presence of DKK-1” value is “restored and enhanced”. Also, in the assay on HaCaT keratinocytes, the “growth of keratinocytes, microscope image” value is “promote the growth” and the “effect on the growth of keratinocytes” value was “stimulatory effect”. Further, in the assay with β-catenin, the “expression level / activity of β-catenin” value is “enhancement” and the “β-catenin expression / activity in the presence of DKK-1” value (“β-catenin expression / activity” for short) is “β-catenin expression in spite of the presence of DKK-1”. Moreover, in assay [1], the “growth of cells in hair follicles, microscope image” value (“growth of cells … microscope image” below) was “promote the growth” and the “effect on the growth of cells in hair follicles” value (from here on “effect on the growth of cells”) is “stimulatory effect”.

For the substance “peptide-3: WNT-derived peptide, amino acid sequence AERRRELCRC (WNT-derived peptide 3)”, in the assay with NIH3T3 fibroblasts, the “growth of fibroblasts, microscope image” value is “promote the growth” and the “effect on the growth of fibroblasts” value was “stimulatory effect”. Besides, the “phosphorylation level of LRP5” value in the assay on LRP5 was “enhancement”. Further, the “hair growth on mouse back skin” value with C57BL/6 mouse back skin is on record as “activity for promoting hair growth”. For the same substance, in the assay with fibronectin, the “fibronectin expression with the lapse of time” value is on record as “gradually elevated”; the “fibronectin expression in the presence of DKK-1” value was “restored and enhanced”. In the assay on HaCaT keratinocytes, the “growth of keratinocytes, microscope image” value was “promote the growth” and the “effect on the growth of keratinocytes” value is recorded as “stimulatory effect”. Further, in the assay on β-catenin, the “expression level / activity of β-catenin” value was “enhancement” and the “β-catenin expression / activity” value was “β-catenin expression in spite of the presence of DKK-1”. In assay [1], the “growth of cells … microscope image” value is “promote the growth” and the “effect on the growth of cells” value is recorded as “stimulatory effect”.

As for “peptide-4: WNT-derived peptide, amino acid sequence LCCGRGHNVL (WNT-derived peptide 4)”, in the assay on NIH3T3 fibroblasts, the “growth of fibroblasts, microscope image” value is recorded as “promote the growth” and the “effect on the growth of fibroblasts” value is on record as “stimulatory effect”. The “phosphorylation level of LRP5” value in the assay with LRP5 was “enhancement”. For the same substance, the “hair growth on mouse back skin” value in the assay with C57BL/6 mouse back skin is recorded as “activity for promoting hair growth”. Further, in the assay with fibronectin, the “fibronectin expression with the lapse of time” value was “gradually elevated”; the “fibronectin expression in the presence of DKK-1” value is “restored and enhanced”. Further, in the assay with HaCaT keratinocytes, the “growth of keratinocytes, microscope image” value is listed as “promote the growth” and the “effect on the growth of keratinocytes” value is “stimulatory effect”. In addition, in the assay on β-catenin, the “expression level / activity of β-catenin” value is “enhancement” and the “β-catenin expression / activity” value is reported as “β-catenin expression in spite of the presence of DKK-1”. Moreover, in assay [1], the “growth of cells … microscope image” value is “promote the growth” and the “effect on the growth of cells” value is recorded as “stimulatory effect”.

With “peptide-2: WNT-derived peptide, amino acid sequence LCCGRGHNAR (WNT-derived peptide 2)”, in the assay on NIH3T3 fibroblasts, the “growth of fibroblasts, microscope image” value is on record as “promote the growth” and the “effect on the growth of fibroblasts” value is on record as “stimulatory effect”. Further, the “phosphorylation level of LRP5” value with LRP5 is recorded as “enhancement”. Further, the “hair growth on mouse back skin” value in the assay on C57BL/6 mouse back skin is “activity for promoting hair growth”. Further, in the assay on fibronectin, the “fibronectin expression with the lapse of time” value is “gradually elevated”; the “fibronectin expression in the presence of DKK-1” value is “restored and enhanced”. Also, in the assay on HaCaT keratinocytes, the “growth of keratinocytes, microscope image” value is given as “promote the growth” and the “effect on the growth of keratinocytes” value is on record as “stimulatory effect”. In addition, in the assay on β-catenin, the “expression level / activity of β-catenin” value is “enhancement” and the “β-catenin expression / activity” value is on record as “β-catenin expression in spite of the presence of DKK-1”. In assay [1], the “growth of cells … microscope image” value is listed as “promote the growth” and the “effect on the growth of cells” value is reported as “stimulatory effect”.
